Data on 18 molecules can be found in US20210032674A1, “METHOD FOR DETERMINING MICROORGANISM CONCENTRATION” (priority 2018, published 2021).

In brackets after ≈: the same amount, converted by molar mass. Some results are limits rather than exact numbers.

The subject of the assay is clinical isolate of Klebsiella pneumoniae. Description: Antibiotic susceptibility test (AST), MIC calling by automated microscopy imaging of microbial biomass in a 336-well AST-disc. The class given is cell-based. As to conditions: K. pneumoniae recovered from spiked positive blood culture flask, adjusted to 5x10^5 CFU/ml in CAMBH, 35° C., up to 5.5 hours total AST time; for MIC: Klebsiella pneumoniae, 5.5 h. On the procedure:
Clinical isolates grown on agar plate were individually suspended in PBS and adjusted to 0.5 McFarland. A 1:100 dilution of this was added together with 9 ml of blood from a healthy donor to a blood culture flask (BD Bactec Plus Aerob) and incubated in a blood culture cabinet overnight. In the morning, after the BCF had turned positive a 500 μl aliquot of the positive BCF were used for the subsequent analysis.
The value of the concentration determination was compared to a pre-determined standard curve and the concentration of microorganisms in the recovered suspension was automatically adjusted to the desired concentration (5×10^5 CFU/ml). For this experiment an aliquot of the concentration adjusted bacteria were plated on an agar plate to determine viable cell count to provide a control measure for the process.
The concentration adjusted sample in CAMBH was added using an automated pipette via central access ports to a 336-well AST-disc pre-filled with dried antibiotics in various concentrations.
Each well contain 20 μl of sample and is incubated at 35° C. An initial reading was taken after 30 minutes (reading 0). Subsequent readings (readings 1-6) were taken every hour up to 5.5 hours total AST time by imaging by automated microscopy.
MIC antibiotic concentrations (measured in mg/I) were determined for a range of antibiotics. Each antibiotic were present in triplicates in the AST-consumable in this experiment.

Turning to `NCC[C@H](O)C(=O)N[C@@H]1C[C@H](N)[C@@H](O[C@H]2O[C@H](CN)[C@@H](O)[C@H](O)[C@H]2O)[C@H](O)[C@H]1O[C@H]1O[C@H](CO)[C@@H](O)[C@H](N)[C@H]1O` [Amikacin], the MIC by setting is: (replicate #1) 1 µg/mL (≈ 1.71 µM); (replicate #2) 2 µg/mL (≈ 3.42 µM); (replicate #3) 1 µg/mL (≈ 1.71 µM).
In the case of `CO/N=C(\C(=O)N[C@@H]1C(=O)N2C(C(=O)O)=C(COC(C)=O)CS[C@H]12)c1csc(N)n1` [Cefotaxime], the minimal inhibitory concentration (MIC) runs as follows: (replicate #1) > 8 µg/mL; (replicate #2) > 8 µg/mL; (replicate #3) > 8 µg/mL.
For `CO[C@@]1(NC(=O)Cc2cccs2)C(=O)N2C(C(=O)O)=C(COC(N)=O)CS[C@@H]21` [Cefoxitine], the minimal inhibitory concentration (MIC) by setting is: (replicate #1) 2 µg/mL (≈ 4.68 µM); (replicate #2) 4 µg/mL (≈ 9.36 µM); (replicate #3) 2 µg/mL (≈ 4.68 µM).
On to `CC(C)(O/N=C(\C(=O)N[C@@H]1C(=O)N2C(C(=O)[O-])=C(C[n+]3ccccc3)CS[C@H]12)c1csc(N)n1)C(=O)O` [Ceftazidime], for which the minimum inhibitory concentration (MIC) reads like this: (replicate #1) ≤ 0.125 µg/mL; (replicate #2) ≤ 0.125 µg/mL; (replicate #3) ≤ 0.125 µg/mL.
As for `CO/N=C(\C(=O)N[C@@H]1C(=O)N2C(C(=O)O)=C(CSc3nc(=O)c(=O)[nH]n3C)CS[C@H]12)c1csc(N)n1` [Ceftriaxone], the MIC (replicate #1) was > 8 µg/mL, the MIC (replicate #2) was > 8 µg/mL and the minimal inhibitory concentration (MIC) (replicate #3) was > 8 µg/mL.
Consider `C[C@@H](O)[C@H]1C(=O)N2C(C(=O)O)=C(S[C@@H]3CN[C@H](C(=O)Nc4cccc(C(=O)O)c4)C3)[C@H](C)[C@H]12` [Ertapenem], for which the MIC is, setting by setting: (replicate #1) ≤ 0.0156 µg/mL; (replicate #2) 0.0312 µg/mL (≈ 0.0657 µM); (replicate #3) ≤ 0.0156 µg/mL.
With `C[C@@H](O)[C@H]1C(=O)N2C(C(=O)O)=C(SCCN=CN)C[C@H]12` [Imipinem], the MIC values entry (replicate #1) is on record as “<=0.5 mg/I”, the MIC values entry (replicate #2) is “<=0.5 mg/I” and the MIC values entry (replicate #3) was “<=0.5 mg/I”.
For the molecule `C[C@H]1COc2c(N3CCN(C)CC3)c(F)cc3c(=O)c(C(=O)O)cn1c23` [Levofloxacin], the minimal inhibitory concentration (MIC) was determined as 0.5 µg/mL (≈ 1.38 µM) (replicate #1), 0.5 µg/mL (≈ 1.38 µM) (replicate #2) and 0.5 µg/mL (≈ 1.38 µM) (replicate #3).
As for `C[C@@H](O)[C@H]1C(=O)N2C(C(=O)O)=C(S[C@@H]3CN[C@H](C(=O)N(C)C)C3)[C@H](C)[C@H]12` [Meropenem], the MIC was ≤ 0.0625 µg/mL (replicate #1), ≤ 0.0625 µg/mL (replicate #2) and ≤ 0.0625 µg/mL (replicate #3).
`CN(C)c1cc(NC(=O)CNC(C)(C)C)c(O)c2c1C[C@H]1C[C@H]3[C@H](N(C)C)C(O)=C(C(N)=O)C(=O)[C@@]3(O)C(O)=C1C2=O` [Tigecyclin]: the MIC values by setting is: (replicate #1) 0.5 mg/I; (replicate #2) 0.5 mg/I; (replicate #3) 0.5 mg/I.
Turning to `NC[C@H]1O[C@H](O[C@H]2[C@H](O)[C@@H](O[C@H]3O[C@H](CO)[C@@H](O)[C@H](N)[C@H]3O)[C@H](N)C[C@@H]2N)[C@H](N)C[C@@H]1O` [Tobramycin], the MIC reads like this: (replicate #1) 2 µg/mL (≈ 4.28 µM); (replicate #2) 2 µg/mL (≈ 4.28 µM); (replicate #3) 2 µg/mL (≈ 4.28 µM).
As for Amoxicillin/clavulanic acid, the MIC values runs as follows: (replicate #1) 8 mg/I; (replicate #2) 16 mg/I; (replicate #3) 16 mg/I.
Take Ceftolozane-tazobactam: the MIC values (replicate #1) is listed as 0.25 mg/I, the MIC values (replicate #2) turned out to be 0.25 mg/I and the MIC values (replicate #3) is reported as 0.25 mg/I.
Take Colistin: the MIC values reads like this: (replicate #1) 0.5 mg/I; (replicate #2) 1 mg/I; (replicate #3) 1 mg/I.
As for Gentamicin, the MIC values is 0.5 mg/I (replicate #1), 0.5 mg/I (replicate #2) and 0.5 mg/I (replicate #3).
Molecule Piperacillin/Tazobactam returned an MIC values (replicate #1) of 4 mg/I, an MIC values (replicate #2) of 4 mg/I and an MIC values (replicate #3) of 4 mg/I.
For the molecule Trimethoprim/Sulfamethoxasole, the MIC values by setting is: (replicate #1) >16 mg/I; (replicate #2) >16 mg/I; (replicate #3) >16 mg/I.
For ceftazidime-avibactam, the MIC values runs as follows: (replicate #1) 16 mg/I; (replicate #2) 32 mg/I; (replicate #3) 32 mg/I.
